Data: the supplement of paper PMC10307832

Assays:
Assay in all cases: relative viability (nuclei count vs DMSO), 5 days (fraction); higher = more cells survive
[1] = system: NCI-H2405
In short: (§1)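 Relative viability was taken as the ratio of nuclei in treated wells to nuclei in vehicle wells. Lung cancer cell lines in 1536-well plates received compounds by pin tool one day after seeding, either one drug alone or a fixed anchor-drug dose plus five library-drug doses (not always all listed) in √10 steps. Nuclei were counted on 4× images after 5 days of treatment, and values are medians of duplicate plates.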

[2] = system: LC-2-ad
In short: as §1

[3] = system: HCC-366
In short: as §1

[4] = system: NCI-H2228
In short: as §1

[5] = system: NCI-H2347
In short: as §1

[6] = system: CAL-12T
In short: as §1

[7] = system: NCI-H1734
In short: as §1

[8] = system: SW 1573
In short: as §1

[9] = system: LK-2
In short: as §1

[10] = system: NCI-H1993
In short: as §1

[11] = system: NCI-H596
In short: as §1

[12] = system: SK-MES-1
In short: as §1

[13] = system: NCI-H2009
In short: as §1

[14] = system: RERF-LC-KJ
In short: as §1

[15] = system: PC-14
In short: as §1

[16] = system: HCC-78
In short: as §1

[17] = system: NCI-H2085
In short: as §1

[18] = system: EMC-BAC-2
In short: as §1

[19] = system: NCI-H1355
In short: as §1

[20] = system: NCI-H3122
In short: as §1

[21] = system: NCI-H838
In short: as §1

[22] = system: HOP-62
In short: as §1

[23] = system: ChaGo-K-1
In short: as §1

With `Cc1cnc(-c2cnc(NCCNc3ccc(C#N)cn3)nc2-c2ccc(Cl)cc2Cl)[nH]1` + Cc1nc(Nc2ncc(C(=O)Nc3c(C)cccc3Cl)s2)cc(N2CCN(CCO)CC2)n1 [Dasatinib] (partner 0.075 µM) the relative viability ([1]; first compound 0.08 µM) was 0.215, the relative viability ([1]; first compound 0.253 µM) was 0.223 and the relative viability ([1]; first compound 0.8 µM) was 0.223. The relative viability ([1]; first compound 2.53 µM) was 0.195, the relative viability ([2]; first compound 0.08 µM) was 0.662 and the relative viability ([2]; first compound 0.253 µM) was 0.486. For the same compound, the relative viability ([2]; first compound 2.53 µM) was 0.471, the relative viability ([3]; first compound 0.08 µM) was 0.67 and the relative viability ([3]; first compound 0.253 µM) was 0.545. The relative viability ([3]; first compound 0.8 µM) was 0.618, the relative viability ([3]; first compound 2.53 µM) was 0.595 and the relative viability ([4]; first compound 0.08 µM) was 0.548. The relative viability ([4]; first compound 0.253 µM) was 0.554, the relative viability ([4]; first compound 0.8 µM) was 0.494 and the relative viability ([4]; first compound 2.53 µM) was 0.424. It also gave a relative viability ([5]; first compound 0.08 µM) of 0.279, a relative viability ([5]; first compound 0.253 µM) of 0.309 and a relative viability ([5]; first compound 0.8 µM) of 0.283. For the same compound, the relative viability ([5]; first compound 2.53 µM) was 0.333, the relative viability ([6]; first compound 0.08 µM) was 0.523 and the relative viability ([6]; first compound 0.253 µM) was 0.358. For the same compound, the relative viability ([6]; first compound 0.8 µM) was 0.23, the relative viability ([6]; first compound 2.53 µM) was 0.198 and the relative viability ([7]; first compound 0.08 µM) was 0.461. For the same compound, the relative viability ([7]; first compound 0.253 µM) was 0.417, the relative viability ([7]; first compound 0.8 µM) was 0.467 and the relative viability ([7]; first compound 2.53 µM) was 0.415. The relative viability ([8]; first compound 0.08 µM) was 0.687, the relative viability ([8]; first compound 0.253 µM) was 0.395 and the relative viability ([8]; first compound 0.8 µM) was 0.493. The relative viability ([8]; first compound 2.53 µM) was 0.168, the relative viability ([9]; first compound 0.08 µM) was 0.387 and the relative viability ([9]; first compound 0.253 µM) was 0.302. For the same compound, the relative viability ([9]; first compound 0.8 µM) was 0.39, the relative viability ([10]; first compound 0.08 µM) was 0.58 and the relative viability ([10]; first compound 0.253 µM) was 0.568. For the same compound, the relative viability ([10]; first compound 0.8 µM) was 0.499, the relative viability ([10]; first compound 2.53 µM) was 0.996 and the relative viability ([11]; first compound 0.08 µM) was 0.601. For the same compound, the relative viability ([11]; first compound 0.253 µM) was 0.656, the relative viability ([11]; first compound 0.8 µM) was 0.624 and the relative viability ([11]; first compound 2.53 µM) was 0.607. It also gave a relative viability ([12]; first compound 0.08 µM) of 0.332, a relative viability ([12]; first compound 0.253 µM) of 0.425 and a relative viability ([12]; first compound 0.8 µM) of 0.401. It also gave a relative viability ([12]; first compound 2.53 µM) of 0.247, a relative viability ([13]; first compound 0.08 µM) of 0.322 and a relative viability ([13]; first compound 0.253 µM) of 0.284. The relative viability ([13]; first compound 0.8 µM) was 0.282, the relative viability ([13]; first compound 2.53 µM) was 0.231 and the relative viability ([14]; first compound 0.08 µM) was 0.9. For the same compound, the relative viability ([14]; first compound 0.253 µM) was 0.765, the relative viability ([14]; first compound 0.8 µM) was 0.796 and the relative viability ([14]; first compound 2.53 µM) was 0.752. For the same compound, the relative viability ([15]; first compound 0.08 µM) was 0.325, the relative viability ([15]; first compound 0.253 µM) was 0.226 and the relative viability ([15]; first compound 2.53 µM) was 0.172. For the same compound, the relative viability ([16]; first compound 0.08 µM) was 0.434, the relative viability ([16]; first compound 0.253 µM) was 0.364 and the relative viability ([16]; first compound 0.8 µM) was 0.41. For the same compound, the relative viability ([16]; first compound 2.53 µM) was 0.371, the relative viability ([17]; first compound 0.08 µM) was 0.247 and the relative viability ([17]; first compound 0.253 µM) was 0.239. The relative viability ([17]; first compound 0.8 µM) was 0.21, the relative viability ([17]; first compound 2.53 µM) was 0.239 and the relative viability ([18]; first compound 0.08 µM) was 0.409. For the same compound, the relative viability ([18]; first compound 0.253 µM) was 0.336, the relative viability ([18]; first compound 0.8 µM) was 0.317 and the relative viability ([18]; first compound 2.53 µM) was 0.332. The relative viability ([19]; first compound 0.08 µM) was 0.749, the relative viability ([19]; first compound 0.253 µM) was 0.664 and the relative viability ([19]; first compound 0.8 µM) was 0.746. For the same compound, the relative viability ([19]; first compound 2.53 µM) was 0.689, the relative viability ([20]; first compound 0.08 µM) was 0.859 and the relative viability ([20]; first compound 0.8 µM) was 0.714. For the same compound, the relative viability ([20]; first compound 2.53 µM) was 0.528, the relative viability ([21]; first compound 0.08 µM) was 0.276 and the relative viability ([21]; first compound 0.253 µM) was 0.307. It also gave a relative viability ([21]; first compound 0.8 µM) of 0.306, a relative viability ([21]; first compound 2.53 µM) of 0.363 and a relative viability ([22]; first compound 0.08 µM) of 0.67. The relative viability ([22]; first compound 0.253 µM) was 0.668, the relative viability ([22]; first compound 0.8 µM) was 0.709 and the relative viability ([22]; first compound 2.53 µM) was 0.749. It also gave a relative viability ([23]; first compound 0.08 µM) of 0.607, a relative viability ([23]; first compound 0.253 µM) of 0.462 and a relative viability ([23]; first compound 0.8 µM) of 0.512. It also gave a relative viability ([23]; first compound 2.53 µM) of 0.515.
